Experimental data: US20120202847A1, “Novel Tetrahydroisoquinoline Compounds” (priority 2009, published 2012)

Target: T1, DGAT1 enzyme (Homo sapiens, UniProt O75907)
T1 construct: made in house
T1 sequence (O75907 1-488): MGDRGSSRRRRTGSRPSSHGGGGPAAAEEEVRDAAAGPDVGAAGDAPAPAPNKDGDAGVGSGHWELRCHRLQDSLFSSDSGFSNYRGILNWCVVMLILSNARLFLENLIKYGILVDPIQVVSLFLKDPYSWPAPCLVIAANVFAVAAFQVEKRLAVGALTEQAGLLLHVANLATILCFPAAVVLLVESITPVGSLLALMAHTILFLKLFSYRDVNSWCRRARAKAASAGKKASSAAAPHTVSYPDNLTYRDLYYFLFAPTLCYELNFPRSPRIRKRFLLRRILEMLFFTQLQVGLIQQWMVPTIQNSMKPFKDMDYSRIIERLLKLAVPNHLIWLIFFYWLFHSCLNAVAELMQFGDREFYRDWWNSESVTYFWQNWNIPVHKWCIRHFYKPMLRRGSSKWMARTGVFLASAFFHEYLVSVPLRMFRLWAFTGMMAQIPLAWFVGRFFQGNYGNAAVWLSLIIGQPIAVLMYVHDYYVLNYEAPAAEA
Test: DGAT1 inhibitory activity test
Assay type: biochemical
Conditions: test compound concentration of 0.05 μg/ml; [14C]-oleoyl-CoA, 23° C., 30 minutes; read-out: Inhibitory Rate
Method: (1) Preparation of DGAT1 Enzyme
DGAT1 enzyme was prepared and stored according to the method described in US2007/0249620.
(2) DGAT1 Inhibitory Activity Test
A reaction solution having the following composition was incubated at room temperature (23° C.) for 30 minutes: 175 mM Tris-HCl (pH 8.0), 8 mM MgCl2, 1 mg/ml BSA, 0.3 mM 1,2-dioleoyl-sn-glycerol (10-fold concentration of EtOH solution, 10% added), 10 μM [^14C]-oleoyl-CoA (approximately 50 mCi/mmol), 0.5% Triton X-100, the DGAT1 enzyme (10 μg) obtained in Test Example 1(1), and a test compound or vehicle (DMSO/MeOH, 7:3 solution, 5% added), 50 μl in total. A reaction stop solution […] consisting of isopropanol/1-heptane/water (80:20:2, v/v/v) was added to the reaction solution and stirred. Subsequently, water […] and 1-heptane (100 μl) were added thereto and stirred. The 1-heptane layer […] was spotted onto a TLC plate and developed with a developing solvent consisting of 1-hexane/diethyl ether/acetic acid (85:15:1, v/v/v). The radioactivity of the triglyceride fraction was quantified using BAS2500 Bio Image Analyzer (FUJIFILM) and compared with the control. The inhibitory activity of the test compound was calculated according to the formula shown below. In this context, the radioactivity at no reaction (0 minute incubation) was used as background.
Inhibitory Rate=100−[(Radioactivity of sample supplemented with test compound)−(Background)]/[(Radioactivity of control)−(Background)]×100

inhibition at 0.05 µg/mL [%] | SMILES
≥ 50 | O=C(O)C[C@H]1CC[C@H](OC(=O)N2CCc3cc(NC(=O)Nc4c(F)cccc4Cl)ccc3C2)CC1 [Example 13, trans-6-[3-(2-chloro-6-fluoro-phenyl)-ureido]-3,4-dihydro-1H-isoquinoline-2-carboxylic acid 4-carboxymethyl-cyclohexyl ester]
≥ 50 | COc1cc(NC(=O)Nc2ccc3c(c2)CCN(C(=O)O[C@H]2CC[C@H](CC(=O)O)CC2)C3)cc(OC)c1 [Example 39, trans-6-[3-(3,5-dimethoxy-phenyl)-ureido]-3,4-dihydro-1H-isoquinoline-2-carboxylic acid 4-carboxymethyl-cyclohexyl ester]
≥ 50 | Cc1ccc(F)c(NC(=O)Nc2ccc3c(c2)CCN(C(=O)O[C@H]2CC[C@H](CC(=O)O)CC2)C3)c1 [Example 7, trans-6-[3-(2-fluoro-5-methyl-phenyl)-ureido]-3,4-dihydro-1H-isoquinoline-2-carboxylic acid 4-carboxymethyl-cyclohexyl ester]
≥ 50 | O=C(O)C[C@H]1CC[C@H](OC(=O)N2CCc3cc(NC(=O)Nc4ccc(Cl)cc4Cl)ccc3C2)CC1 [Example 24, trans-6-[3-(2,4-dichloro-phenyl)-ureido]-3,4-dihydro-1H-isoquinoline-2-carboxylic acid 4-carboxymethyl-cyclohexyl ester]
≥ 50 | Cc1cccc(NC(=O)Nc2ccc3c(c2)CCN(C(=O)O[C@H]2CC[C@H](CC(=O)O)CC2)C3)c1C [Example 35, trans-6-[3-(2,3-dimethyl-phenyl)-ureido]-3,4-dihydro-1H-isoquinoline-2-carboxylic acid 4-carboxymethyl-cyclohexyl ester]
≥ 50 | O=C(O)C[C@H]1CC[C@H](OC(=O)N2CCc3cc(NC(=O)Nc4ccc(F)c(Cl)c4)ccc3C2)CC1 [Example 32, trans-6-[3-(3-chloro-4-fluoro-phenyl)-ureido]-3,4-dihydro-1H-isoquinoline-2-carboxylic acid 4-carboxymethyl-cyclohexyl ester]
≥ 50 | COc1ccc(NC(=O)Nc2ccc3c(c2)CCN(C(=O)O[C@H]2CC[C@H](CC(=O)O)CC2)C3)cc1Cl [Example 41, trans-6-[3-(3-chloro-4-methoxy-phenyl)-ureido]-3,4-dihydro-1H-isoquinoline-2-carboxylic acid 4-carboxymethyl-cyclohexyl ester]
≥ 50 | O=C(O)C[C@H]1CC[C@H](OC(=O)N2CCc3cc(NC(=O)Nc4c(F)cc(F)cc4F)ccc3C2)CC1 [Example 15, trans-6-[3-(2,4,6-trifluoro-phenyl)-ureido]-3,4-dihydro-1H-isoquinoline-2-carboxylic acid 4-carboxymethyl-cyclohexyl ester]
≥ 50 | Cc1cc(NC(=O)Nc2ccc3c(c2)CCN(C(=O)O[C@H]2CC[C@H](CC(=O)O)CC2)C3)ccc1F [Example 38, trans-6-[3-(4-fluoro-3-methyl-phenyl)-ureido]-3,4-dihydro-1H-isoquinoline-2-carboxylic acid 4-carboxymethyl-cyclohexyl ester]
≥ 50 | Cc1ccc(NC(=O)Nc2ccc3c(c2)CCN(C(=O)O[C@H]2CC[C@H](CC(=O)O)CC2)C3)c(Cl)c1 [Example 20, trans-6-[3-(2-chloro-4-methyl-phenyl)-ureido]-3,4-dihydro-1H-isoquinoline-2-carboxylic acid 4-carboxymethyl-cyclohexyl ester]
≥ 50 | O=C(O)C[C@H]1CC[C@H](OC(=O)N2CCc3cc(NC(=O)Nc4ccc(F)cc4F)ccc3C2)CC1 [Example 1, trans-6-[3-(2,4-difluoro-phenyl)-ureido]-3,4-dihydro-1H-isoquinoline-2-carboxylic acid 4-carboxymethyl-cyclohexyl ester]
≥ 50 | O=C(O)C[C@H]1CC[C@H](OC(=O)N2CCc3cc(NC(=O)Nc4cc(F)cc(F)c4)ccc3C2)CC1 [Example 31, trans-6-[3-(3,5-difluoro-phenyl)-ureido]-3,4-dihydro-1H-isoquinoline-2-carboxylic acid 4-carboxymethyl-cyclohexyl ester]
